The text below walks through data of patent US12187742B2 (XRAD Therapeutics, Inc., priority 2018, dated 2025).

Where a name gives a salt, the structure may show the parent alone. Bounds are passed on as bounds.

One experiment concerns the target DNA-PK (Homo sapiens (Human), UniProt P78527). Briefly: DNA-PK Enzyme-Linked Immunosorbent Assay (phosphorylation of GST-p53 (1-101) peptide). The experiment is classed as biochemical. To be noted: ELISA. Here is the method:
Assay of Compounds ATM and DNA-PK Inhibition
remove wash solution, turn plate upside down onto a thin paper towel and centrifuge at 1000 rpm for 1 min to absorb all wash buffer. Clean the bottom of plate with moist lint free paper. Scan plate immediately using ODYSSEY CLx (LI-COR) for the best results. DNA-PK Enzyme-Linked Immunosorbent Assay:
On day one, coat 96-well plate (ThermoFisher. Cat #: 442404) with GST-p53 (1-101) peptide (purified by Pharmaron, BCS department) by diluting 3 μg of GST-p53 each well with 0.1 M Na2CO3/NaHCO3, pH 9.6. Incubate the plate overnight at 4° C. The second day, remove coating buffer, wash 2× with PBST (1×PBS containing 0.1% Tween-20). Then add DNA-PK enzyme solution (Invitrogen, #PR9107A; the final DNA-PK concentration is 0.1 μg/mL), series dilution compounds (the final top concentration is 100 nM, 3 fold series dilution, with total 10 doses) and ATP solution (the final ATP concentration is 20 μM) to the 96-well plate. Incubate the plate at 25° C. for 1 hour. Then wash 3× with PBST (1×PBS containing 0.1% Tween-20). Block the plate with PBST+ 1% BSA at 4° C. overnight. The third day, wash 4× with PBST (1×PBS containing 0.1% Tween-20). Then add Phospho-p53 primary antibody (cell signaling Technology, #9286, Phospho-p53 (Ser15) (16G8) Mouse mAb) (1/1000) to each well. Seal with plate and incubate the plate for 1 h at 37° C. Wash 4× with PBST (1×PBS containing 0.1% Tween-20), add 100 μL of HRP-linked secondary antibody (Cell signaling Technology, #7076, Anti-mouse IgG, HRP-linked Antibody) (1/1000) to each well. Seal with tape and incubate the plate for 30 min at 37° C. Wash 4× with PBST (1×PBS containing 0.1% Tween-20), add 100 μL of TMB (Cell signaling Technology, #7004) substrate to each well. Seal with tape and incubate the plate for 10 min at 37° C. Then add 100 μL of Stop solution (Cell signaling Technology, #7002) to each well. Read the plate at 450 nm to detect absorption.

The target of the next experiment is ATM (Homo sapiens (Human), UniProt Q13315). Briefly: ATM in Cell Western Assay (pKAP1 in etoposide-treated MCF-7 cells). It is filed as cell-based. In outline: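 Cells received compounds in a 10-dose, 3-fold series from a 1 μM final top concentration, then 100 μM etoposide, for 1 hr at 37° C. They were then fixed with paraformaldehyde and permeabilized with 0.1% Triton X-100. After immunostaining, plates were scanned on an infrared imager.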

Where [1] appears, read: MCF-7 cells, etoposide 100 μM, 1 hr, pKAP1 readout.

ATM, sequence (Q13315 whole entry): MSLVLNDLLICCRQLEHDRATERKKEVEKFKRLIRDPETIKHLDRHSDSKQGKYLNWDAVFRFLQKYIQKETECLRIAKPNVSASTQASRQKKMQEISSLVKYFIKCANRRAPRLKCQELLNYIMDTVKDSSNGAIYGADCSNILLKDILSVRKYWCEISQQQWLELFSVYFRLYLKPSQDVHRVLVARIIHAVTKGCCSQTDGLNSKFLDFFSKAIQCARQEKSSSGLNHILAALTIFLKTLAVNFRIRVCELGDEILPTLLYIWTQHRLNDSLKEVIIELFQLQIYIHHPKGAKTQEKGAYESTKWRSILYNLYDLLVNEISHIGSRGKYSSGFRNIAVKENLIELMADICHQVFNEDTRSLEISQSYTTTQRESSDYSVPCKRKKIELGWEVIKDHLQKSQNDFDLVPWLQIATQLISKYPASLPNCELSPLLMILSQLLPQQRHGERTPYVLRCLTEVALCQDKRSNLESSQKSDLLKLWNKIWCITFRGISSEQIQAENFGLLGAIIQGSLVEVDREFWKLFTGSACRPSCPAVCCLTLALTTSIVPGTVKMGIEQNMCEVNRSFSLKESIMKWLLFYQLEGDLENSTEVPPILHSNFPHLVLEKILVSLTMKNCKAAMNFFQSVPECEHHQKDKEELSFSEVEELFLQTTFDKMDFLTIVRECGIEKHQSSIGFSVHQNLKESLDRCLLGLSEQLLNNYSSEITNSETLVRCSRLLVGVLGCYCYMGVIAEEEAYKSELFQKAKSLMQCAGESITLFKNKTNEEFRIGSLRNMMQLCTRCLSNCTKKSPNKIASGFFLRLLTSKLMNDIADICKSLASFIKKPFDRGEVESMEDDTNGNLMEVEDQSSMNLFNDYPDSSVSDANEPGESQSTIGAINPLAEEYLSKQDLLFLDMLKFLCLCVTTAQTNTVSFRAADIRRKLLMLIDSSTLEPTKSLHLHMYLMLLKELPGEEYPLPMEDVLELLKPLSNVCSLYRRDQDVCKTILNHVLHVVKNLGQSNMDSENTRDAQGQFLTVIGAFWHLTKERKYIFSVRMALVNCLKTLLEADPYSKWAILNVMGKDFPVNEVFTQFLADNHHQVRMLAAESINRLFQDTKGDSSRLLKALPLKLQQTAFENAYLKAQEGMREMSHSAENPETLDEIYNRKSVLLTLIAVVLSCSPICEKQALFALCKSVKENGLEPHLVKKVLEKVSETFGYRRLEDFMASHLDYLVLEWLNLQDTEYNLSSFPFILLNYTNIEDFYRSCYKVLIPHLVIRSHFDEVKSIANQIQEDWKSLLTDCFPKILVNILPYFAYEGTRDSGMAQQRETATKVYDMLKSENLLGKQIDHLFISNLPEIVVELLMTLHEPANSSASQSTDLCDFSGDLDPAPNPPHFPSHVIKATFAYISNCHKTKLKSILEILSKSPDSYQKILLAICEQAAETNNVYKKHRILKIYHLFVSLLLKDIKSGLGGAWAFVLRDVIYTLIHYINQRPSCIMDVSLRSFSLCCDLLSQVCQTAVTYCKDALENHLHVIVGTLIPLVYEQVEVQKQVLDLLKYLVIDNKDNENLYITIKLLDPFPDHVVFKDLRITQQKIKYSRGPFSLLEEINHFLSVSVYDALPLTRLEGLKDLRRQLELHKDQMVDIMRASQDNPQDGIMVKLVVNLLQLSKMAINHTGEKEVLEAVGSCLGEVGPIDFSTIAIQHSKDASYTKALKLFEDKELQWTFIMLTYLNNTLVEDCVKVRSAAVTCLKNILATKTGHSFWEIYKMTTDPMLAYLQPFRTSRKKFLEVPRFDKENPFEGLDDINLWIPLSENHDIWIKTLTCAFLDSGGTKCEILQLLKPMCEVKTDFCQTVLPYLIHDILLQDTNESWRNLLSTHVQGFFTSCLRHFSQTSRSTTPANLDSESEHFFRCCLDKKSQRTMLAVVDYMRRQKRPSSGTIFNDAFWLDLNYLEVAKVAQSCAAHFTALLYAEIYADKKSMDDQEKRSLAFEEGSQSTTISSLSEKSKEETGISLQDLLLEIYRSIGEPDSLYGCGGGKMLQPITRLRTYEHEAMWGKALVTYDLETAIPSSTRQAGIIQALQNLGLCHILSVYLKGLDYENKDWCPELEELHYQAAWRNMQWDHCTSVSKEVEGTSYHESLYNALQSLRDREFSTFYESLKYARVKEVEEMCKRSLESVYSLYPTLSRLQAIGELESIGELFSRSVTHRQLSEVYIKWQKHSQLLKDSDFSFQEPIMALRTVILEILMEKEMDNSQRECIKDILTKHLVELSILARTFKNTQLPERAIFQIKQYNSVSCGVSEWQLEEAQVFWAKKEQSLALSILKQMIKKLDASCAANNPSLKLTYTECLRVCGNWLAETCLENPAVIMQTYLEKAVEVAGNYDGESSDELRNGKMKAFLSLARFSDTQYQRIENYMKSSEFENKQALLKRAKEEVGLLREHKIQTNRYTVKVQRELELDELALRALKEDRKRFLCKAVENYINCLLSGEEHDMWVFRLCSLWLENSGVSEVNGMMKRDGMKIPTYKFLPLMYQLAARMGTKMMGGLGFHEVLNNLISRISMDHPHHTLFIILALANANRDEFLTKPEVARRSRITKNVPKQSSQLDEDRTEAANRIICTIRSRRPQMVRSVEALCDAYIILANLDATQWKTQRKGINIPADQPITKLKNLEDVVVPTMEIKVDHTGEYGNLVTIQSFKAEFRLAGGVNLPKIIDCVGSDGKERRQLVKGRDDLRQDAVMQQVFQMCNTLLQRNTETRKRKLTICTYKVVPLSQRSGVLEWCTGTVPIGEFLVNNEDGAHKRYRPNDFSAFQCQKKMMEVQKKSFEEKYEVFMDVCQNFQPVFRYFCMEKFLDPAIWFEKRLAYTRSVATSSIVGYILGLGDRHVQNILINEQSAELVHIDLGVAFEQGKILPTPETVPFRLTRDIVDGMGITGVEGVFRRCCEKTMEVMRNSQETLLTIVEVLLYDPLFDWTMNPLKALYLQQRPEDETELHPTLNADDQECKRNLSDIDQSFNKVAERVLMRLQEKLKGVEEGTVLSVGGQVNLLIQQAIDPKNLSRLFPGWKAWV

The IC50 is the concentration at which inhibition is half-maximal. Low values mean greater potency in that assay, high ones weaker potency in that assay. For the compound `CN(C)CCCOc1ncc(-c2ccc3ncc4c(c3c2)C2(CCC2)C(=O)N4C)cc1NS(=O)(=O)c1ccc(F)cc1` [Example 158, N-(2-(3-(Dimethylamino)propoxy)-5-(3′-methyl-2-oxo-2′,3′-dihydrospiro[cyclobulane-1,1′-pyrrolo[2,3-c]quinolin]-8′-yl)pyridin-3-yl)-4-fluorobenzenesulfonamide hydrochloride], the IC50 against DNA-PK (ATP 20 μM) and at ATM (setting [1]) was 0.5 to 1 nM in each case.

As to `CN1C(=O)C2(CCC2)c2c1cnc1ccc(-c3cnc(OCCCN4CCOCC4)c(NS(=O)(=O)c4ccccc4)c3)cc21` [Example 131, N-(5-(3′-Methyl-2′-oxo-2′,3′-dihydrospiro[cyclobulane-1,1′-pyrrolo[2,3-c]quinolin]-8′-yl)-2-(3-morpholinopropoxy)pyridin-3-yl)benzenesulfonamide hydrochloride], the IC50 against DNA-PK (ATP 20 μM) and against ATM (setting [1]) was 1 to 100 nM in each case.

Consider `CN(C)CCCOc1ccc(-c2ccc3ncc4c(c3c2)C2(CC2)C(=O)N4C)cc1NS(=O)(=O)c1ccccc1` [Example 63, N-(2-(3-(Dimethylamino)propoxy)-5-(3′-methyl-2′-oxo-2′,3′-dihydrospiro[cyclopropane-1,1′-pyrrolo[2,3-c]quinolin]-8′-yl)phenyl)benzenesulfonamide], for which the figures for the IC50 against DNA-PK (ATP 20 μM) and on ATM (setting [1]) were 1 to 100 nM and 0.5 to 1 nM, respectively.

As for `CN1C(=O)C2(CCC2)c2c1cnc1ccc(-c3cnc(OCCCN4CCCCC4)c(NS(=O)(=O)c4cncs4)c3)cc21` [Example 199, N-(5-(3′-Methyl-2′-oxo-2′,3′-dihydrospiro[cyclobutane-1,1′-pyrrolo[2,3-c]quinolin]-8′-yl)-2-(3-(piperidin-1-yl)propoxy)pyridin-3-yl)thiazole-5-sulfonamide hydrochloride], the IC50 on DNA-PK (ATP 20 μM) is less than 0.5 nM; against ATM (setting [1]) it was 1 to 100 nM.

For `CN(C)CCCOc1ncc(-c2cc3c4c(cnc3cc2F)N(C)C(=O)C42CCC2)cc1NS(C)(=O)=O` [Example 291, N-(2-(3-(Dimethylamino)propoxy)-5-(7′-fluoro-3′-methyl-2′-oxo-2′,3′-dihydrospiro [cyclobutane-1,1′-pyrrolo[2,3-c]quinolin]-8′-yl)pyridin-3-yl)methanesulfonamide hydrochloride], the IC50 at DNA-PK (ATP 20 μM) and against ATM (setting [1]) was 1 to 100 nM throughout.

`CN1C(=O)C2(CCC2)c2c1cnc1ccc(-c3cnc(OCCCN4CCCC4)c(NS(=O)(=O)c4ccccc4)c3)cc21` [Example 232, N-(5-(3′-Methyl-2′-oxo-2′,3′-dihydrospiro[cyclobutane-1,1′-pyrrolo[2,3-c]quinolin]-8′-yl)-2-(3-(pyrrolidin-1-yl)propoxy)pyridin-3-yl)benzenesulfonamide]: the IC50 is 0.5 to 1 nM on DNA-PK (ATP 20 μM) and 1 to 100 nM against ATM (setting [1]).

For `CN1C(=O)C2(CC2)c2c1cnc1ccc(-c3cnc(OCCC4CCCCN4C)c(NS(=O)(=O)C4CC4)c3)cc21` (stereo not drawn) [Example 80, N-(5-(3′-Methyl-2′-oxo-2′,3′-dihydrospiro [cyclopropane-1,1′-pyrrolo[2,3-c]quinolin]-8′-yl)-2-(2-(1-methylpiperidin-2-yl)ethoxy)pyridin-3-yl)cyclopropanesulfonamide], the IC50 against DNA-PK (ATP 20 μM) and at ATM (setting [1]) was 1 to 100 nM each time.

Turning to `Cc1ccc(S(=O)(=O)Nc2cc(-c3ccc4ncc5c(c4c3)C3(CCC3)C(=O)N5C)cnc2OCCCN(C)C)cc1` [Example 145, N-(2-(3-(Dimethylamino)propoxy)-5-(3′-methyl-2′-oxo-2′,3′-dihydrospiro [cyclobulane-1,1′-pyrrolo[2,3-c]quinolin]-8′-yl)pyridin-3-yl)-4-methylbenzenesulfonamide hydrochloride], the IC50 lay within 0.5 to 1 nM against DNA-PK (ATP 20 μM) and 1 to 100 nM at ATM (setting [1]).

As to `CN(C)CCCOc1ncc(-c2ccc3ncc4c(c3c2)C2(CCC2)C(=O)N4C)cc1NS(=O)(=O)N1CCNCC1` [Example 177, N-(2-(3-(Dimethylamino)propoxy)-5-(3′-methyl-2′-oxo-2′,3′-dihydrospiro [cyclobutane-1,1′-pyrrolo[2,3-c]quinolin]-8′-yl)pyridin-3-yl)piperazine-1-sulfonamide], the IC50 was less than 0.5 nM on DNA-PK (ATP 20 μM) and 1 to 100 nM at ATM (setting [1]).

For `CN(C)CCCOc1ncc(-c2cc3c4c(cnc3cc2F)N(C)C(=O)C42CC2)cc1NS(=O)(=O)c1ccc(Cl)cc1` [Example 129, 4-Chloro-N-(2-(3-(dimethylamino)propoxy)-5-(7′-fluoro-3′-methyl-2′-oxo-2′,3′-dihydrospiro[cyclopropane-1,1′-pyrrolo[2,3-c]quinolin]-8′-yl)pyridin-3-yl) benzenesulfonamide hydrochloride], the IC50 against DNA-PK (ATP 20 μM) and against ATM (setting [1]) was 1 to 100 nM throughout.

In the case of `CN1C(=O)C2(CCC2)c2c1cnc1ccc(-c3cnc(OCCCN4CCCC4)c(NS(=O)(=O)N(C)C)c3)cc21` [Example 242, 8′-(5-[(Dimethylsulfamoyl)amino]-6-[3-(pyrrolidin-1-yl)propoxy]pyridin-3-yl)-3′-methyl-2′,3′-dihydrospiro [cyclobutane-1,1′-pyrrolo[2,3-c]quinoline]-2′-one], the IC50 on DNA-PK (ATP 20 μM) lay in the range of 1 to 100 nM; on ATM (setting [1]) it was 0.5 to 1 nM.

Consider `Cc1ccc(S(=O)(=O)Nc2cc(-c3ccc4ncc5c(c4c3)C3(CC3)C(=O)N5C)cnc2OCCCN(C)C)cc1` [Example 100, N-(2-(3-(Dimethylamino)propoxy)-5-(3′-methyl-2′-oxo-2′,3′-dihydrospiro [cyclopropane-1,1′-pyrrolo[2,3-c]quinolin]-8′-yl)pyridin-3-yl)-4-methylbenzenesulfonamide], for which the IC50 is less than 0.5 nM against DNA-PK (ATP 20 μM) and 1 to 100 nM at ATM (setting [1]).

As for `CN1C(=O)C2(CCC2)c2c1cnc1ccc(-c3cnc(OCCCN4CCOCC4)c(NS(=O)(=O)N(C)C)c3)cc21` [Example 304, 8′-{5-[(Dimethylsulfamoyl)amino]-6-[3-(morpholin-4-yl)propoxy]pyridin-3-yl)-3′-methyl-2′,3′-dihydrospiro[cyclobutane-1,1′-pyrrolo[2,3-c]quinoline]-2′-one], the concentration for half-maximal inhibition (IC50) was 0.5 to 1 nM on DNA-PK (ATP 20 μM) and 1 to 100 nM on ATM (setting [1]).

Take `CCCS(=O)(=O)Nc1cc(-c2ccc3ncc4c(c3c2)C2(CC2)C(=O)N4C)cnc1OCCCN(C)C` [Example 77, N-(2-(3-(Dimethylamino)propoxy)-5-(3′-methyl-2′-oxo-2′,3′-dihydrospiro [cyclopropane-1,1′-pyrrolo [2,3-c]quinolin]-8′-yl)pyridin-3-yl)propane-1-sulfonamide]: the IC50 on DNA-PK (ATP 20 μM) and at ATM (setting [1]) was 1 to 100 nM each time.

Regarding `COc1ccc([C@H]2C[C@@]3(C2)C(=O)N(C)c2cnc4cc(F)c(-c5cnc(OCCNC(C)C)c(NS(C)(=O)=O)c5)cc4c23)cc1` [Example 421, hydrochloride], the IC50 is 1 to 100 nM against DNA-PK (20 μM ATP) and greater than 100 nM against ATM (pKAP1 in etoposide-treated MCF-7 cells).

For `CN(C)CCCOc1ncc(-c2ccc3ncc4c(c3c2)C2(CCC2)C(=O)N4C)cc1NS(=O)(=O)C1CC1` [Example 190, N-(2-(3-(Dimethylamino)propoxy)-5-(3′-methyl-2′-oxo-2′,3′-dihydrospiro[cyclobulane-1,1′-pyrrolo[2,3-c]quinolin]-8′-yl)pyridin-3-yl)cyclopropanesulfonamide], the IC50 on DNA-PK (ATP 20 μM) and at ATM (setting [1]) was 1 to 100 nM each time.

Take `Cc1ccc(S(=O)(=O)Nc2cc(-c3ccc4ncc5c(c4c3)C3(CCC3)C(=O)N5C)cnc2N2CCC(N3CCCCC3)CC2)cn1` [Example 198, N-(2-([1,4′-Bipiperidin]-1′-yl)-5-(3′-methyl-2′-oxo-2′,3′-dihydrospiro[cyclobutane-1,1′-pyrrolo[2,3-c]quinolin]-8′-yl)pyridin-3-yl)-6-methylpyridine-3-sulfonamide hydrochloride]: the 50% inhibitory concentration (IC50) is less than 0.5 nM against DNA-PK (ATP 20 μM) and 1 to 100 nM at ATM (setting [1]).

For the compound `CN(C)CCCOc1ncc(-c2ccc3ncc4c(c3c2)C2(CC2)C(=O)N4C)cc1NS(=O)(=O)c1cccc(C#N)c1` [Example 96, 3-Cyano-N-(2-(3-(dimethylamino)propoxy)-5-(3′-methyl-2′-oxo-2′,3′-dihydrospiro[cyclopropane-1,1′-pyrrolo[2,3-c]quinolin]-8′-yl)pyridin-3-yl)benzenesulfonamide], the results for the IC50 against DNA-PK (ATP 20 μM) and against ATM (setting [1]) were less than 0.5 nM and 0.5 to 1 nM, respectively.
